Test results published in US20240101576A1, “HETEROCYCLIC INHIBITORS OF EGFR AND/OR HER2, FOR USE IN THE TREATMENT OF CANCER” (Scorpion Therapeutics, Inc., priority 2020, published 2024).

Columns and labels:
Format in all cases: cell-based
[1] = biological target: T1, EGFR exon 20 ASV Ins V769_D770 (Ba/F3 cells) (Homo sapiens, UniProt P00533, INS769ASV); assay: Inhibitor activity on EGFR-dependent cell growth (CellTiter-Glo, 72 h), Ba/F3 EGFR exon 20 ASV Ins; details: read-out: BaF3 ASV IC50
T1 construct: expressed in transfected cells; host or cells: Ba/F3 (murine pro-B cells), retroviral transduction, puromycin selection, IL3-independent pool
How it was run: (§1)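 IC50s derive from a sigmoidal dose–response fit of CellTiter-Glo signal. The signal was normalised between […]-treated cells and cell-free medium. Ba/F3 mutant-EGFR cells, seeded at 400–800/well depending on the line, had 72 h of exposure to a 10-point, 3-fold compound series.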

[2] = biological target: T2, EGFR exon 20 NPG Ins D770_N771 (Ba/F3 cells) (Homo sapiens, UniProt P00533, INS770NPG); assay: Inhibitor activity on EGFR-dependent cell growth (CellTiter-Glo, 72 h), Ba/F3 EGFR exon 20 NPG Ins; details: read-out: BaF3 NPG IC50
T2 construct: expressed in transfected cells; host or cells: Ba/F3 (murine pro-B cells), retroviral transduction, puromycin selection, IL3-independent pool
How it was run: as §1

[3] = biological target: T3, EGFR exon 20 SVD Ins D770_N771 (Ba/F3 cells) (Homo sapiens, UniProt P00533, INS770SVD); assay: Inhibitor activity on EGFR-dependent cell growth (CellTiter-Glo, 72 h), Ba/F3 EGFR exon 20 SVD Ins; details: read-out: BaF3 SVD IC50
T3 construct: expressed in transfected cells; host or cells: Ba/F3 (murine pro-B cells), retroviral transduction, puromycin selection, IL3-independent pool
How it was run: as §1

EGFR (CUTO14 cells) = EGFR (CUTO14 cells) (Homo sapiens, UniProt P00533); assay: Inhibitor activity on EGFR phosphorylation (pEGFR AlphaLISA, 2 h), CUTO14 cells
Source text: Example B. Inhibitor Activity on EGFR phosphorylation (pEGFR)
EGFR mutant Ba/F3 cells were generated by transduction with retrovirus containing vectors expressing EGFR L858R, EGFR exon 19del, EGFR L858R/C797S, EGFR exon 20 NPG Ins D770_N771, EGFR exon 20 ASV Ins V769_D770, or EGFR exon 20 SVD Ins D770_N771 genes along with a puromycin selection marker. Transduced cells are selected with puromycin for 7 days and are then be transferred into culture media without Interleukin 3 (IL3). Surviving cells are confirmed to express EGFR by Western blot and maintained as a pool. CUTO14 cells were obtained from Dr. Robert C. Doebele at the University of Colorado. The IC50 date are included in Table 6 and Table 7.
(§2) 1.1 Cells are harvested from flask into cell culture medium and the cell number counted.
1.2 Cells are diluted with culture medium to the desired density and 40 μL of cell suspension is added into each well of 384-well cell culture plate and the seeding density is 50K cells/well (Ba/F3) or 12.5K cells/well (CUTO14).
(§3) 2 Compound Preparation and Treatment
(§4) 2.1 Test compounds are dissolved to 10 mM in a DMSO stock solution. 45 μL of stock solution is transferred to a 384 polypropylene plate (pp-plate). Perform 3-fold, 10-point dilution via transferring 15 μL compound into 30 μL DMSO using a TECAN (EVO200) liquid handler.
(§5) 2.2 Spin plates at room temperature at 1,000 RPM for 1 minute.
2.3 Transfer 5 nL of diluted compound from compound source plate into the cell plate.
2.4 After compound treatment for 2 hours, perform pEGFR detection by AlphaLISA for compound treatment plates as described in “Detection” section.
3 Detection by pEGFR AlphaLISA (Perkin-Elmer)
3.1 Plates are removed from incubators and equilibrated at room temperature for 10 minutes, and media was removed
3.2 10 μL of lysis buffer is added and plates shaken at 600 rpm for 1 hr.
3.3 Prepare acceptor mix just before use and dispense 5 μL of acceptor mix to all the wells. Shake 350 rpm for Ihr in the dark
3.4 Prepare donor mix under low light conditions prior to use. Dispense 5 μL of donor mix to all the wells. Mix well on the shaker, seal and wrap in aluminum foil and incubate 1.5 hrs at room temperature in the dark
3.5 Transfer 18.5 μL mixture to OptiPlate 384, and read using an Envision. The IC50 date were included in Table 6 and Table 7.

EGFR WT (Ba/F3 cells) = biological target: T4, EGFR WT (Ba/F3 cells) (Homo sapiens, UniProt P00533); assay: Inhibitor activity on EGFR-dependent cell growth (CellTiter-Glo, 72 h), Ba/F3 EGFR WT; details: read-out: BaF3 WT IC50
T4 construct: expressed in transfected cells; host or cells: Ba/F3 (murine pro-B cells), retroviral transduction, puromycin selection, maintained with EGF
How it was run: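 This growth assay used Ba/F3 cells that depend on wild-type EGFR and are kept in EGF without IL3. Compounds were made up as 10 mM DMSO stocks and diluted 3-fold over 10 points. 120 nL went onto 600 cells/well. After 72 hours, 40 μL CellTiter-Glo was added and luminescence read on EnVision after 30 min.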

[4] = biological target: T5, EGFR exon 20 FQEA Ins A763_V764 (Ba/F3 cells) (Homo sapiens, UniProt P00533, INS763FQEA); assay: Inhibitor activity on EGFR-dependent cell growth (CellTiter-Glo, 72 h), Ba/F3 EGFR exon 20 FQEA Ins; details: read-out: BaF3 FQEA IC50
T5 construct: expressed in transfected cells; host or cells: Ba/F3 (murine pro-B cells), retroviral transduction, puromycin selection, IL3-independent pool
How it was run: as §1

[5] = biological target: T1, EGFR exon 20 ASV Ins V769_D770 (Ba/F3 cells); assay: Inhibitor activity on EGFR phosphorylation (pEGFR AlphaLISA, 2 h), Ba/F3 EGFR exon 20 ASV Ins; details: EGFR phosphorylation, AlphaLISA, 2 hours; read-out: ASV IC50 (pEGFR)
How it was run: (§6)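 pEGFR AlphaLISA readout after 2 h compound exposure; IC50 from 10-point, 3-fold dilutions (10 mM DMSO stock). Ba/F3 mutant lines grown without IL3, 50K cells/well; CUTO14 12.5K cells/well.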

[6] = biological target: EGFR exon 19del (Ba/F3 cells) (Homo sapiens, UniProt P00533); assay: Inhibitor activity on EGFR-dependent cell growth (CellTiter-Glo, 72 h), Ba/F3 EGFR exon 19del; details: Ba/F3 EGFR exon 19del cell growth, read-out: BaF3 Del19 IC50
Source text: (§7) Example A. Inhibitor Activity on EGFR-Dependent Cell Growth
(§8) Cell lines are generated by transducing Ba/F3 cells with retroviruses containing vectors with EGFR WT, EGFR L858R, EGFR exon 19del, EGFR L858R/C797S, EGFR exon 20 NPG Ins D770_N771, EGFR exon 20 ASV Ins V769_D770, EGFR exon 20 SVD Ins D770_N771, or EGFR exon 20 FQEA Ins A763_V764 genes and a puromycin selection marker. Transduced cells are selected with puromycin for 7 days and are then be transferred into culture media without Interleukin 3 (IL3). EGFR WT cells are maintained with supplemental EGF. Surviving cells are confirmed to express EGFR by Western blot and maintained as a pool. The IC50 date were included in Table 6 and Table 7.
as §2
(§9) 1.2 Cells are diluted with culture medium to the desired density and 40 μL of cell suspension is added into each well of 384-well cell culture plate and the seeding density is 800 (FQEA, exon 19del), 600 (WT, NPG, L858R/C797S), or 400 (ASV, SVD, L858R) cells/well.
as §3, §4, §5
(§10) 2.3 Transfer 120 nL of diluted compound from compound source plate into the cell plate.
(§11) 2.4 After compound treatment for 72 hours, perform CTG detection for compound treatment plates as described in “Detection” section.
(§12) 3.1 Plates are removed from incubators and equilibrated at room temperature for 15 minutes.
(§13) 3.2 Thaw the CellTiter Glo reagents and allow to equilibrate to room temperature before the experiment.
(§14) 3.3 Add 40 μL of CellTiter-Glo reagent into each well (at 1:1 to culture medium). Then place the plates at room temperature for 30 min followed by reading on EnVision.
(§15) 4.1 Inhibition activity is calculated following the formula below:
(§16) % Inhibition=100×(LumHC−LumSample)/(LumHC−LumLC) • where HC is obtained from cells treated with 0.1% DMSO only; and LC is obtained from culture medium only.
(§17) 4.2 2. Calculate the IC50 by fitting the Curve using Xlfit (v5.3.1.3), equation 201.
(§18) Y=Bottom+(Top−Bottom)/(1+10^((Log IC50−X)*HillSlope))

[7] = biological target: T2, EGFR exon 20 NPG Ins D770_N771 (Ba/F3 cells); assay: Inhibitor activity on EGFR phosphorylation (pEGFR AlphaLISA, 2 h), Ba/F3 EGFR exon 20 NPG Ins
How it was run: as §6

EGFR L858R (Ba/F3 cells) = biological target: T6, EGFR L858R (Ba/F3 cells) (Homo sapiens, UniProt P00533, L858R); assay: Inhibitor activity on EGFR-dependent cell growth (CellTiter-Glo, 72 h), Ba/F3 EGFR L858R; details: read-out: BaF3 L858R IC50
T6 construct: expressed in transfected cells; host or cells: Ba/F3 (murine pro-B cells), retroviral transduction, puromycin selection, IL3-independent pool
Source text: as §7, §8, §2, §9, §3, §4, §5, §10, §11, §12, §13, §14, §15, §16, §17, §18

T6 sequence (P00533 25-1210 L858R): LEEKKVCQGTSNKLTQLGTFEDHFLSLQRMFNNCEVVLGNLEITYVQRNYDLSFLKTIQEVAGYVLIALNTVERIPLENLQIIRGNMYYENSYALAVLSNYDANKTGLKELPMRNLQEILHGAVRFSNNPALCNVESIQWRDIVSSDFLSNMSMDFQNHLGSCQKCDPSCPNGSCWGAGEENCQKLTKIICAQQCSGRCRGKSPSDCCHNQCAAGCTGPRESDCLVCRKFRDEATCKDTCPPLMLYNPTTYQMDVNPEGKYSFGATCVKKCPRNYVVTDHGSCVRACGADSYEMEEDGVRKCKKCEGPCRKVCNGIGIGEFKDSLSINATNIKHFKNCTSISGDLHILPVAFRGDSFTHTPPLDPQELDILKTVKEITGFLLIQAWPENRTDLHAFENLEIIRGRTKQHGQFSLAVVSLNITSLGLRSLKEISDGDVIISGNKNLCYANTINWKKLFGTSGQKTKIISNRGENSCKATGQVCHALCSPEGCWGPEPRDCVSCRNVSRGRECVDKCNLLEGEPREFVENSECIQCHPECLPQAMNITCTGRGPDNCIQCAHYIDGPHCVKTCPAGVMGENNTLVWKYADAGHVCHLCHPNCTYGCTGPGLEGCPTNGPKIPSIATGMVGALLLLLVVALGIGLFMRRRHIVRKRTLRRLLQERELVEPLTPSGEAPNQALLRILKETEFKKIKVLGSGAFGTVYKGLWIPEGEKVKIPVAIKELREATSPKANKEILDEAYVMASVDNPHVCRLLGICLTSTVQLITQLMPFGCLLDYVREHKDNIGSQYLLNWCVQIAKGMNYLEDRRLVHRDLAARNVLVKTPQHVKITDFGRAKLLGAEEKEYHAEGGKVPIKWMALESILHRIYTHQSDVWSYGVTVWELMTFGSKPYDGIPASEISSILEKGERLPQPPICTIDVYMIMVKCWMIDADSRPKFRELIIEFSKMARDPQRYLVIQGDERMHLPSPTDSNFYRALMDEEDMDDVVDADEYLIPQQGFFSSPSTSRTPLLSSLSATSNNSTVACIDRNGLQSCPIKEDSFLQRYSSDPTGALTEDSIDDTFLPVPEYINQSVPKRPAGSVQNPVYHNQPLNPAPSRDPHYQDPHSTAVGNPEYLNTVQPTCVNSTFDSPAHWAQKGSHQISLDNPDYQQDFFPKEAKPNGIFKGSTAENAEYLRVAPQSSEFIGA
T1 sequence (P00533 with tags, fused parts or gaps INS769ASV): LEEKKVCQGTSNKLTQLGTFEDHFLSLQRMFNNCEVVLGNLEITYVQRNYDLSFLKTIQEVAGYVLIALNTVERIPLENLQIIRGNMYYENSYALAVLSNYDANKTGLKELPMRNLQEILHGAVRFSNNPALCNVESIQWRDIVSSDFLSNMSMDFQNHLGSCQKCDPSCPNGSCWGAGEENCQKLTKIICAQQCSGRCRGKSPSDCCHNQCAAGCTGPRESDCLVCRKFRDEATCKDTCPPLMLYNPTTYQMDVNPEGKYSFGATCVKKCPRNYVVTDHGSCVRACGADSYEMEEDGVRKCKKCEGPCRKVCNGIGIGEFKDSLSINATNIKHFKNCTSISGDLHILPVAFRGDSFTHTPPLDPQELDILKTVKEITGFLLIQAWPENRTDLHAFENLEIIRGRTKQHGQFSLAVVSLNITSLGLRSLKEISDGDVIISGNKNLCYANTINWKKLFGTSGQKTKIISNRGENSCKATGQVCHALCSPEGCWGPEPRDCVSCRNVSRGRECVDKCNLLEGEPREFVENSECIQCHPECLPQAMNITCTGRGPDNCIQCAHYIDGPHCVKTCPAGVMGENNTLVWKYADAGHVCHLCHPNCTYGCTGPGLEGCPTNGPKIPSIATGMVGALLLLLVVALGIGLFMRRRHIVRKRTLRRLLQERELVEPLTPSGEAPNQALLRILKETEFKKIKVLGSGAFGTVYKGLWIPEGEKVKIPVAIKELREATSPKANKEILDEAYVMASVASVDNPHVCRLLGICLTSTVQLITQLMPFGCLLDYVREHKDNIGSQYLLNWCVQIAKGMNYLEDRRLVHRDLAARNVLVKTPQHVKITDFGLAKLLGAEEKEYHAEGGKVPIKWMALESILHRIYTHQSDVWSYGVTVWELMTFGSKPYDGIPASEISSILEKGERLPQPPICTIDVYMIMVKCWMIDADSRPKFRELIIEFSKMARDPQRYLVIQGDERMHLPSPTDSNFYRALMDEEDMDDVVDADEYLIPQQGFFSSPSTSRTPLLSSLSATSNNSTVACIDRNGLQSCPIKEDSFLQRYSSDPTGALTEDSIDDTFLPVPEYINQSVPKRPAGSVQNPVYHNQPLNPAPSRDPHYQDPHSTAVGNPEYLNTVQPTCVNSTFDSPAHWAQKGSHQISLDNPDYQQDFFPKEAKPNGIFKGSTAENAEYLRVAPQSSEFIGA
Sequence of EGFR exon 19del (Ba/F3 cells) (P00533 with tags, fused parts or gaps DEL746-750): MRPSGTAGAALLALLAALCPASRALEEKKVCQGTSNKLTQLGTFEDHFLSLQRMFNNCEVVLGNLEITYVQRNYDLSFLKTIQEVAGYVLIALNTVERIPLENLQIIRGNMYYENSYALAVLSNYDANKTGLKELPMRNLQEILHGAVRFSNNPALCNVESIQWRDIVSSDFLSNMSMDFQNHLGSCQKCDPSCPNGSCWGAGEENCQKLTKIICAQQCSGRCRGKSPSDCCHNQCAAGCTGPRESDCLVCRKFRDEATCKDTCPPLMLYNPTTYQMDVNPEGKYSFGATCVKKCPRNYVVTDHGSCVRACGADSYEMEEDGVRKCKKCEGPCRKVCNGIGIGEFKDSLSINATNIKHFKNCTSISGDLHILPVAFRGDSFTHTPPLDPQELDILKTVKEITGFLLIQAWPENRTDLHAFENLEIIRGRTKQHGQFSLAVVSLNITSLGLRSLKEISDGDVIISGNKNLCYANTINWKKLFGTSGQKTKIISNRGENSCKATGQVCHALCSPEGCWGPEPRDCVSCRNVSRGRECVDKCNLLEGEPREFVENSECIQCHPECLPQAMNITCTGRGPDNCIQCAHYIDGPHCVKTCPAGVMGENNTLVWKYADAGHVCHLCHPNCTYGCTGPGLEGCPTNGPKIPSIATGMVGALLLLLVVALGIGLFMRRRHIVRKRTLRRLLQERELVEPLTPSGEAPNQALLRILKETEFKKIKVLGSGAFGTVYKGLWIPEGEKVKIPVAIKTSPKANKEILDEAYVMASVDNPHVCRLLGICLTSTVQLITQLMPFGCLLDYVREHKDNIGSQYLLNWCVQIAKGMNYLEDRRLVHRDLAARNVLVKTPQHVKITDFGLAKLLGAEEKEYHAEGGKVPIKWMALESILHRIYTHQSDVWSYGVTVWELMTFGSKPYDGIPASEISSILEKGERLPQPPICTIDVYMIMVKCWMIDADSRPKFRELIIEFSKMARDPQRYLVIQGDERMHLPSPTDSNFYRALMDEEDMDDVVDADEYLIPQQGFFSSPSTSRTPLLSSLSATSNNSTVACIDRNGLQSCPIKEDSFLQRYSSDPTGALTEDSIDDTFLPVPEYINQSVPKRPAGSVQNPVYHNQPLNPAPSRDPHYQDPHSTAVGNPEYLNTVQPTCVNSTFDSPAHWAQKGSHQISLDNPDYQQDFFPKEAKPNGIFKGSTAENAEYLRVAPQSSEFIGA
T2 sequence (P00533 with tags, fused parts or gaps INS770NPG): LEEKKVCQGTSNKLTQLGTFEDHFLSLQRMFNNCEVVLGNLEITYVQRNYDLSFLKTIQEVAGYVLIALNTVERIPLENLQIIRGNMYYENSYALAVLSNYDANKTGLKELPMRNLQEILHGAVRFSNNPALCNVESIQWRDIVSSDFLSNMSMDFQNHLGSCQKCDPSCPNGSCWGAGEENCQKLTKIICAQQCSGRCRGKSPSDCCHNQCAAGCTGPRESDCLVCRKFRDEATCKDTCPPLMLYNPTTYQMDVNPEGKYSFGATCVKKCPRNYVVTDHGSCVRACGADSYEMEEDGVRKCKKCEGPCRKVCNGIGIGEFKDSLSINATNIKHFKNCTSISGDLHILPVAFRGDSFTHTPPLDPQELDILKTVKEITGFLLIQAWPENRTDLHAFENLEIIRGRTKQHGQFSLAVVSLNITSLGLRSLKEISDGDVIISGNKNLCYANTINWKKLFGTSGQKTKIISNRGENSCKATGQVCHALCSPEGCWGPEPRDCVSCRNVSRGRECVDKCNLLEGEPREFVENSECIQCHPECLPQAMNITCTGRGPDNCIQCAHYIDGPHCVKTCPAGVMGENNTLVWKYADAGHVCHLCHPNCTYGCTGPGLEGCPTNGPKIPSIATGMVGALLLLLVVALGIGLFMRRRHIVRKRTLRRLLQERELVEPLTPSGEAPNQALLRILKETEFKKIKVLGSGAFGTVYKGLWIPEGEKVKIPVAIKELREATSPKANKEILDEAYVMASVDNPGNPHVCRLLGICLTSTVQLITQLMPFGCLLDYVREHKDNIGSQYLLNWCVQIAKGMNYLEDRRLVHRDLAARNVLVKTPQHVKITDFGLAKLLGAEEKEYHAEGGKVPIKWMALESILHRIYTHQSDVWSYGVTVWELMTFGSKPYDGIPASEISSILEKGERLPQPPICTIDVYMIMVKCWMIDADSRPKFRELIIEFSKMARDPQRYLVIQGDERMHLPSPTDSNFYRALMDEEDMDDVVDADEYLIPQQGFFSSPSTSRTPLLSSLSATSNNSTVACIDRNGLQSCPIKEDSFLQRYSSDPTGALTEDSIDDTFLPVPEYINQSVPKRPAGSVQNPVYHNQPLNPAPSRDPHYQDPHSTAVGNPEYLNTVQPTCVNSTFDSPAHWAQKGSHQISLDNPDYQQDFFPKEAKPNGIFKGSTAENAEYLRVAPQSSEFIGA

Row | IC50 [1] [µM] | IC50 [2] [µM] | IC50 [3] [µM] | IC50 (EGFR (CUTO14 cells)) [µM] | IC50 (EGFR WT (Ba/F3 cells)) [µM] | IC50 [4] [µM] | IC50 [5] [µM] | IC50 [6] [µM] | IC50 [7] [µM] | IC50 (EGFR L858R (Ba/F3 cells)) [µM] | Structure (SMILES)
1 | 0.1 to 1 | 0.1 to 1 | 0.1 to 1 | < 0.1 | > 1 | – | – | – | – | – | COc1c(F)cccc1Nc1c(-c2ccncn2)[nH]c2c1C(=O)NCC21CCN(C(=O)/C=C/CN(C)C)CC1 [compound 650]
2 | < 0.1 | 0.1 to 1 | < 0.1 | – | 0.1 to 1 | < 0.1 | < 0.1 | < 0.1 | < 0.1 | < 0.1 | COc1c(Cl)cccc1Nc1c(-c2ccnc3[nH]cnc23)[nH]c2c1C(=O)NCC2 [compound 290]
3 | < 0.1 | < 0.1 | < 0.1 | < 0.1 | 0.1 to 1 | – | – | – | – | – | C=CC(=O)N1CCC2(CC1)CNC(=O)c1c2[nH]c(-c2ccncn2)c1Nc1cc(F)cc(F)c1OC [compound 612]
4 | 0.1 to 1 | 0.1 to 1 | 0.1 to 1 | 0.1 to 1 | > 1 | – | – | – | – | – | COc1c(F)cccc1Nc1c(-c2ccnc(C)n2)[nH]c2c1C(=O)NCC21CCN(C(=O)/C=C/CN(C)C)CC1 [compound 649]
5 | < 0.1 | < 0.1 | < 0.1 | < 0.1 | 0.1 to 1 | – | – | – | – | – | C=CC(=O)N1CCC2(CC1)CNC(=O)c1c2[nH]c(-c2ccnc(C)n2)c1Nc1cc(F)cc(F)c1OC [compound 641]
6 | < 0.1 | < 0.1 | < 0.1 | < 0.1 | > 1 | – | – | – | – | – | COc1c(Cl)cccc1Nc1c(-c2ccncc2)[nH]c2c1C(=O)NC[C@H]2C[C@@H]1CN(C)CCO1 [Compound 645, (7R)-3-[(3-chloro-2-methoxyphenyl)amino]-7-{[(2R)-4-methylmorpholin-2-yl]methyl}-2-(pyridin-4-yl)-1H,5H,6H,7H-pyrrolo[3,2-c]pyridin-4-one]
7 | < 0.1 | < 0.1 | < 0.1 | < 0.1 | 0.1 to 1 | – | – | – | – | – | COc1c(F)cccc1Nc1c(-c2ccnc(Nc3cnn(C)n3)n2)[nH]c2c1C(=O)NCC2 [compound 593, 3-[(3-fluoro-2-methoxyphenyl)amino]-2-{2-[(2-methyl-1,2,3-triazol-4-yl)amino]pyrimidin-4-yl}-1H,5H,6H,7H-pyrrolo[3,2-c]pyridin-4-one]
8 | – | < 0.1 | – | < 0.1 | > 1 | – | – | – | – | – | COc1c(Cl)cccc1Nc1c(-c2ccnc(C)n2)[nH]c2c1C(=O)NC[C@@H]2C[C@@H]1COCCO1 [Compound 552, (7S)-3-[(3-chloro-2-methoxyphenyl)amino]-7-[(2R)-1,4-dioxan-2-ylmethyl]-2-(2-methylpyrimidin-4-yl)-1H,5H,6H,7H-pyrrolo[3,2-c]pyridin-4-one]
9 | < 0.1 | < 0.1 | < 0.1 | – | 0.1 to 1 | 0.1 to 1 | – | < 0.1 | < 0.1 | < 0.1 | COc1c(F)cccc1Nc1c(-c2ccncc2F)[nH]c2c1C(=O)NC[C@H]2C[C@@H]1CCO1 [Compound 422a, (7R)-3-[(3-fluoro-2-methoxyphenyl)amino]-2-(3-fluoropyridin-4-yl)-7-[(2R)-oxetan-2-ylmethyl]-1H,5H,6H,7H-pyrrolo[3,2-c]pyridin-4-one]
10 | – | < 0.1 | – | – | 0.1 to 1 | – | – | < 0.1 | < 0.1 | < 0.1 | COc1c(Cl)cccc1Nc1c(-c2ccnc(C)n2)[nH]c2c1C(=O)NC[C@H]2CC1COCCO1 (stereo in doubt) [Compound 573, (7R)-3-[(3-chloro-2-methoxyphenyl)amino]-7-[(2R)-1,4-dioxan-2-ylmethyl]-2-(2-methylpyrimidin-4-yl)-1H,5H,6H,7H-pyrrolo[3,2-c]pyridin-4-one]
11 | < 0.1 | < 0.1 | < 0.1 | – | < 0.1 | < 0.1 | – | < 0.1 | – | < 0.1 | COCc1ccc2nccc(-c3[nH]c4c(c3Nc3cccc(Cl)c3OC)C(=O)NCC4)c2n1 [compound 679, 3-[(3-chloro-2-methoxyphenyl)amino]-2-[6-(methoxymethyl)-1,5-naphthyridin-4-yl]-1H,5H,6H,7H-pyrrolo[3,2-c]pyridin-4-one]
12 | < 0.1 | < 0.1 | < 0.1 | – | < 0.1 | < 0.1 | – | < 0.1 | – | < 0.1 | COc1ccc2nccc(-c3[nH]c4c(c3Nc3cccc(Cl)c3OC)C(=O)NC[C@H]4C)c2n1 [310a]
